Results published in US20230122911A1, “FORMULATIONS OF ENZALUTAMIDE” (Astellas Pharma Inc., priority 2012, published 2023).
≈ marks a conversion by molar mass, not a printed value.

Tests used:
physchem = conditions: USP phosphate buffer (pH 6.8), pH 6.8, aqueous buffer, kinetic from dmso stock
[1] = Solubility test with polymers (Example 24); conditions: USP phosphate buffer (pH 6.8), pH 6.8, aqueous buffer, kinetic from dmso stock, after 5 min

Work on CNC(=O)c1ccc(N2C(=S)N(c3ccc(C#N)c(C(F)(F)F)c3)C(=O)C2(C)C)cc1F [enzalutamide, 4-{3-[4-cyano-3-(trifluoromethyl)phenyl]-5,5-dimethyl-4-oxo-2-sulfanylideneimidazolidin-1-yl}-2-fluoro-N-methylbenzamide] yielded a solubility at 5 min (physchem) of 31.1 µg/mL (≈ 67 µM), a solubility at 5 min ([1]; with copolyvidone) of 47.4 µg/mL (≈ 102 µM) and a solubility at 5 min ([1]; with hydroxypropylmethylcellulose 2910 (TC-5E)) of 42.7 µg/mL (≈ 91.9 µM). The solubility at 5 min ([1]; with hydroxypropylmethylcellulose 2910 (TC-5R)) was 39.2 µg/mL (≈ 84.4 µM), the solubility at 5 min ([1]; with polyvinylpyrrolidone) was 40.1 µg/mL (≈ 86.3 µM) and the solubility at 5 min ([1]; without polymer) was 29 µg/mL (≈ 62.4 µM).
